Values joined by “and” are separate entries in the source; they are usually repeats but may differ in a detail not shown here. Identical values can stand only once. ± gives the expanded uncertainty stated by the source.

This passage reports activity coefficient results from the NIST ThermoML archive (doi:10.1016/j.fluid.2006.02.022).

The nature of the series: activity coefficient (dimensionless); of the first substance listed, at infinite dilution; xn = mol fraction of the nth substance listed. The settings on record: 101 kPa, Liquid, Chromatography, x1 = 0.

`CCCCS` [1-butanethiol] + O: the activity coefficient reads like this: (288.15 K) 6030 ± 490; (298.15 K) 6040 ± 530; (308.15 K) 5830 ± 570; (318.15 K) 5340 ± 620; (333.15 K) 4140 ± 620.

For the molecule `COC(C)(C)CC(C)(C)C` [methyl 1,1,3,3-tetramethylbutyl ether] + O, the activity coefficient runs as follows: (318.15 K) 47100 and 126000; (333.15 K) 35500 and 76900.

Turning to `CCCS` [1-propanethiol] + O, the activity coefficient (288.15 K) came to 1420 ± 110; the activity coefficient (298.15 K) was 1500 ± 120; the activity coefficient (308.15 K) was found to be 1460 ± 130; the activity coefficient (318.15 K) was 1450 ± 150; the activity coefficient (333.15 K) turned out to be 1310 ± 160.

Turning to `c1ccsc1` [thiophene] + O, the activity coefficient runs as follows: (288.15 K) 1260 ± 100; (298.15 K) 1270 ± 96; (308.15 K) 1310 ± 100; (318.15 K) 1290 ± 110; (333.15 K) 1100 ± 100.

Regarding `Cc1ccccc1` [toluene] + O, the activity coefficient worked out at 8980 ± 950 (288.15 K), 8950 ± 950 (298.15 K), 8780 ± 930 (308.15 K) and 8290 ± 880 (318.15 K).

For `CCC(C)(C)OC` [2-methoxy-2-methylbutane] + O, the activity coefficient reads like this: (288.15 K) 390 ± 39; (298.15 K) 529 ± 44; (308.15 K) 725 ± 55; (318.15 K) 1070 ± 87.

For the molecule `CCOC(C)(C)C` [2-ethoxy-2-methylpropane] + O, the activity coefficient is, setting by setting: (288.15 K) 325 ± 22; (298.15 K) 514 ± 35; (308.15 K) 659 ± 46; (318.15 K) 873 ± 82.

As to `CCOC(C)(C)CC(C)(C)C` [ethyl 1,1,3,3-tetramethylbutyl ether] + O, the activity coefficient (288.15 K) is 111000 ± 9700; the activity coefficient (298.15 K) came out at 143000 ± 16000; the activity coefficient (308.15 K) was determined as 149000 ± 23000; the activity coefficient (318.15 K) turned out to be 126000 ± 27000; the activity coefficient (333.15 K) came out at 76900 ± 29000.

For the molecule `CCOC(C)(C)CC` [1,1-dimethylpropyl ethyl ether] + O, the activity coefficient stood at 1350 ± 100 (288.15 K), 1990 ± 140 (298.15 K), 2530 ± 190 (308.15 K) and 3320 ± 350 (318.15 K).

On to `CC(C)S` [2-propanethiol] + O, for which the activity coefficient is, setting by setting: (288.15 K) 1120 ± 90; (298.15 K) 1140 ± 100; (308.15 K) 1190 ± 120; (318.15 K) 1130 ± 130.

Consider `COC(C)(C)C` [2-methoxy-2-methylpropane] + O, for which the activity coefficient came out at 127 ± 13 (288.15 K), 139 ± 11 (298.15 K), 180 ± 14 (308.15 K) and 234 ± 18 (318.15 K).
